In brackets after ≈: the same amount, converted by molar mass.
Biological target: PHL (Photorhabdus asymbiotica, UniProt C7BLE4)
Assay: Hemagglutination inhibition assay with PHL (papain-treated human RBCs O)
Format: cell-based
Details: for MIC (minimal inhibitory concentration, hemagglutination by PHL): RBC O, two independent measurements; for PotencyL-Fuc: MIC L-fucose / MIC ligand; for β L-Fuc (affinity improvement factor): MICbasic unit/(valency × MICligand), basic unit L-Fuc; for β Azide1 (affinity improvement factor): basic unit azide 1
Method: The set of potential ligands 1–10 with different levels of fucosylation was tested, and their inhibition potency on hemagglutination by PHL was assessed (Table 1, Fig. 2). […] To assess the contribution of valency to the affinity increase, an affinity improvement factor β was calculated as the relationship MICbasic unit/(valency × MICligand).
Human red blood cells (RBCs) O were processed according to previously published work[16]. In brief, RBCs O treated with sodium citrate were washed four times by PBS buffer (137 mM NaCl, 2.7 mM KCl, 8 mM Na2HPO4, 1.47 mM KH2PO4, pH 7.4), diluted to 50% by PBS with 0.005% (w/w) sodium azide and treated by 0.1% papain for the duration of 30 minutes.
Hemagglutination inhibition assay was performed for specificity and semi-quantitative affinity of the PHL interaction with the compounds. All carbohydrate inhibitors in 50 mM starting concentration were serially diluted in the PBS buffer and used for a determination of the lowest inhibiting concentration. As a blank, the PBS buffer supplemented with the appropriate amount of DMSO was used in order to exclude potential interference with the interaction. The individual samples were mixed with the lectin in concentration 2 mg/ml in a 5 μl:5 μl ratio. Thereafter, 10 μl of 10% RBCs O in PBS buffer was added, thoroughly mixed and incubated for 10 minutes at room temperature. Following incubation, the mixture was again mixed and the reaction was observed on microscope slides using Levenhuk 2L NG microscope with Levenhuk D2L digital camera (Levenhuk, USA). Imagines were obtained via software ToupView for Windows (Levenhuk). The positive (PHL without inhibitor) and negative control (reaction without PHL) were prepared and processed in the same way using the appropriate volume of PBS buffer instead of the not included components. The lowest concentration of inhibitor able to inhibit agglutination was determined and compared with the standard (L-fucose). Minimal inhibitory concentrations (MIC) of synthesised inhibitors were determined from two independent measurements.

Chain of PHL (C7BLE4 entry or part of it): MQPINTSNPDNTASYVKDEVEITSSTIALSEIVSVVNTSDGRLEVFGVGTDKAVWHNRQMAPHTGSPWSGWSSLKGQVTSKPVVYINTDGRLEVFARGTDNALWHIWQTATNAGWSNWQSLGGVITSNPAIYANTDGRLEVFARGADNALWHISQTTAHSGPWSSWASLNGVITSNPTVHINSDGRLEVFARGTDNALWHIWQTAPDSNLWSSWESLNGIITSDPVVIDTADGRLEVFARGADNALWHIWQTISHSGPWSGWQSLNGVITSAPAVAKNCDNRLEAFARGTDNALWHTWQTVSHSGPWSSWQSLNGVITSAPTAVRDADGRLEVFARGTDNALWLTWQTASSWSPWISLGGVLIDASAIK

| Compound | MIC (minimal inhibitory concentration, hemagglutination by PHL) [µM] | PotencyL-Fuc (hemagglutination) | PotencyL-Fuc (hemagglutination, listed as azide 1) | β L-Fuc (affinity improvement factor) (hemagglutination) | β Azide1 (affinity improvement factor) (hemagglutination) | PotencyAzide1 (hemagglutination, relative to azide 1) |
| --- | --- | --- | --- | --- | --- | --- |
| C[C@@H]1O[C@@H](CCN=[N+]=[N-])[C@@H](O)[C@H](O)[C@@H]1O [Azide 1] | 200 (≈ 43.4 µg/mL) | 15.6 | 16 | 15.6 | 1 | – |
| C[C@@H]1O[C@@H](CCn2cc(COCC(COCc3cn(CC[C@@H]4O[C@@H](C)[C@@H](O)[C@@H](O)[C@@H]4O)nn3)(COCc3cn(CC[C@@H]4O[C@@H](C)[C@@H](O)[C@@H](O)[C@@H]4O)nn3)COCc3cn(CC[C@@H]4O[C@@H](C)[C@@H](O)[C@@H](O)[C@@H]4O)nn3)nn2)[C@@H](O)[C@H](O)[C@@H]1O [Dendrimer 8] | 50 (≈ 57.9 µg/mL) | 62.5 | – | 15.6 | 1 | 4 |
